Measurements reported in patent US7875647B2, “Heteroaryl-pyrazole derivatives as cannabinoid CB1 receptor antagonists” (Green Cross Corporation, priority 2006, dated 2011).

biological target: T1, Cannabinoid-1 receptor (CB1R) (Rattus norvegicus, UniProt P20272); experiment: Cannabinoid-1 receptor (CB1R) binding affinity assay ([3H]CP-55940, rat CB-1 receptor binding protocol); conditions: IC50(nM), brain tissue of SD rats, [3H]CP-55940, 30° C. 60 min
T1 construct: The tissue obtained from the brain of SD rats was homogenized; from tissue; host or cells: brain of SD rats (membrane pellet of the homogenate)
T1 sequence (P20272 whole entry): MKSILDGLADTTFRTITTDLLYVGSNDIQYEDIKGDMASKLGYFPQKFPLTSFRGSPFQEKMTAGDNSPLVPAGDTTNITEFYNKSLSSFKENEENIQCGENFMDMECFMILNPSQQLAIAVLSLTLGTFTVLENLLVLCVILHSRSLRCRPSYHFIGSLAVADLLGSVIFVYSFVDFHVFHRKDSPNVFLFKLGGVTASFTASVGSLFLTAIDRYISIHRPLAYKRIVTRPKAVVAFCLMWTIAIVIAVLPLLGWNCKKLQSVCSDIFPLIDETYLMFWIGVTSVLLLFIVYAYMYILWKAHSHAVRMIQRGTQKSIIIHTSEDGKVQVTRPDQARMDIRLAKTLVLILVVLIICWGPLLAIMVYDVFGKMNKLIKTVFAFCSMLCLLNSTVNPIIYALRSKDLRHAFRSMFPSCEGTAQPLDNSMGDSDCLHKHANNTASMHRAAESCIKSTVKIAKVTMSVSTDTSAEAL

| SMILES | IC50 |
| --- | --- |
| CCCCOC(C)(C)c1nnc(-c2nn(-c3ccc(Cl)cc3Cl)c(-c3ccc(Cl)cc3)c2C)o1 [Example 243, 2-(2-butoxypropan-2-yl)-5-(5-(4-chlorophenyl)-1-(2,4-dichlorophenyl)-4-methyl-1H-pyrazol-3-yl)-1,3,4-oxadiazole] | 9.78 nM |
| CCCCCOC(C)(C)c1nnc(-c2nn(-c3ccc(Cl)cc3Cl)c(-c3ccc(Cl)cc3)c2C)o1 [Example 244, 2-(5-(4-chlorophenyl)-1-(2,4-dichlorophenyl)-4-methyl-1H-pyrazol-3-yl)-5-(2-(pentyloxy)propan-2-yl)-1,3,4-oxadiazole] | 15.1 nM |
| Cc1c(-c2nnc(C(C)(C)OCc3cccc(Cl)c3)o2)nn(-c2ccc(Cl)cc2Cl)c1-c1ccc(Cl)cc1 [Example 249, 2-(2-(3-Chlorobenzyloxy)propan-2-yl)-5-(5-(4-chlorophenyl)-1-(2,4-dichlorophenyl)-4-methyl-1H-pyrazol-3-yl)-1,3,4-oxadiazole] | 11.1 nM |

same assay, conditions: brain tissue of SD rats, [3H]CP-55940, 30° C. 60 min; read-out: IC50

| SMILES | IC50 |
| --- | --- |
| COC(=O)NCc1c(-c2nnc(C(C)(C)C)o2)nn(-c2ccc(Cl)cc2Cl)c1-c1ccc(Cl)cc1 [Example 232, Methyl (3-(5-tert-butyl-1,3,4-oxadiazol-2-yl)-5-(4-chlorophenyl)-1-(2,4-dichlorophenyl)-1H-pyrazol-4-yl)methylcarbamate] | 15.6 nM |
| CC(C)(C)c1nnc(-c2nn(-c3ccc(Cl)cc3Cl)c(-c3ccc(Cl)cc3)c2COc2ccccc2)o1 [Example 233, 2-tert-butyl-5-(5-(4-chlorophenyl)-1-(2,4-dichlorophenyl)-4-(phenoxymethyl)-1H-pyrazol-3-yl)-1,3,4-oxadiazole] | 28.9 nM |
| CC(C)(C)c1nnc(-c2nn(-c3ccc(Cl)cc3Cl)c(-c3ccc(Cl)cc3)c2COc2ccccn2)o1 [Example 234, 2-tert-butyl-5-(5-(4-chlorophenyl)-1-(2,4-dichlorophenyl)-4-((pyridin-2-yloxy)methyl)-1H-pyrazol-3-yl)-1,3,4-oxadiazole] | 24.4 nM |
| CCCOC(C)(C)c1nnc(-c2nn(-c3ccc(Cl)cc3Cl)c(-c3ccc(Cl)cc3)c2C)o1 [Example 235, 2-(5-(4-chlorophenyl)-1-(2,4-dichlorophenyl)-4-methyl-1H-pyrazol-3-yl)-5-(2-propoxypropan-2-yl)-1,3,4-oxadiazole] | 42 nM |
| CCCCC(OCc1ccccc1)c1nnc(-c2nn(-c3ccc(Cl)cc3Cl)c(-c3ccc(Cl)cc3)c2C)o1 (stereo not shown) [Example 236, 2-(1-(benzyloxy)pentyl)-5-(5-(4-chlorophenyl)-1-(2,4-dichlorophenyl)-4-methyl-1H-pyrazol-3-yl)-1,3,4-oxadiazole] | 177 nM |
| C=CCOC(C)(C)c1nnc(-c2nn(-c3ccc(Cl)cc3Cl)c(-c3ccc(Cl)cc3)c2C)o1 [Example 237, 2-(2-(allyloxy)propan-2-yl)-5-(5-(4-chlorophenyl)-1-(2,4-dichlorophenyl)-4-methyl-1H-pyrazol-3-yl)-1,3,4-oxadiazole] | 17.3 nM |
| C=CCOC(C)(C)c1nnc(-c2nn(-c3ccc(Cl)cc3Cl)c(-c3ccc(Br)cc3)c2CC)o1 [Example 238, 2-(2-(allyloxy)propan-2-yl)-5-(5-(4-bromophenyl)-1-(2,4-dichlorophenyl)-4-ethyl-1H-pyrazol-3-yl)-1,3,4-oxadiazole] | 18.4 nM |
| C=CCOC(C)(C)c1nnc(-c2nn(-c3ccc(Cl)cc3Cl)c(-c3ccc(Cl)cc3)c2CC)o1 [Example 239, 2-(2-(allyloxy)propan-2-yl)-5-(5-(4-chlorophenyl)-1-(2,4-dichlorophenyl)-4-ethyl-1H-pyrazol-3-yl)-1,3,4-oxadiazole] | 4.48 nM |
| CCc1c(-c2nnc(C(C)(C)OCCCO)o2)nn(-c2ccc(Cl)cc2Cl)c1-c1ccc(Br)cc1 [Example 240, 3-(2-(5-(5-(4-bromophenyl)-1-(2,4-dichlorophenyl)-4-ethyl-1H-pyrazol-3-yl)-1,3,4-oxadiazol-2-yl)propan-2-yloxy)propan-1-ol] | 13.7 nM |
| CCCCC(O)c1nnc(-c2nn(-c3ccc(Cl)cc3Cl)c(-c3ccc(Cl)cc3)c2C)o1 (stereo not shown) [Example 241, 1-(5-(5-(4-chlorophenyl)-1-(2,4-dichlorophenyl)-4-methyl-1H-pyrazol-3-yl)-1,3,4-oxadiazol-2-yl)pentan-1-ol] | 73.4 nM |
| Cc1c(-c2nnc([C@H]3C[C@H]3C(=O)N3CCCCC3)o2)nn(-c2ccc(Cl)cc2Cl)c1-c1ccc(Cl)cc1 [Example 242, ((1R,2S)-2-(5-(5-(4-chlorophenyl)-1-(2,4-dichlorophenyl)-4-methyl-1H-pyrazol-3-yl)-1,3,4-oxadiazol-2-yl)cyclopropyl)(piperidin-1-yl)methanone] | 67.3 nM |
| Cc1c(-c2nnc(C(C)(C)OCc3ccccc3)o2)nn(-c2ccc(Cl)cc2Cl)c1-c1ccc(Cl)cc1 [Example 245, 2-(2-(benzyloxy)propan-2-yl)-5-(5-(4-chlorophenyl)-1-(2,4-dichlorophenyl)-4-methyl-1H-pyrazol-3-yl)-1,3,4-oxadiazole] | 9.41 nM |
| Cc1c(-c2nnc(C(C)(C)OCc3ccccc3F)o2)nn(-c2ccc(Cl)cc2Cl)c1-c1ccc(Cl)cc1 [Example 248, 2-(5-(4-Chlorophenyl)-1-(2,4-dichlorophenyl)-4-methyl-1H-pyrazol-3-yl)-5-(2-(2-fluorobenzyloxy)propan-2-yl)-1,3,4-oxadiazole] | 25.1 nM |
| COC(c1ccccc1)(c1nnc(-c2nn(-c3ccc(Cl)cc3Cl)c(-c3ccc(Cl)cc3)c2C)o1)C(F)(F)F (stereo not shown) [Example 251, 2-(5-(4-chlorophenyl)-1-(2,4-dichlorophenyl)-4-methyl-1H-pyrazol-3-yl)-5-(2,2,2-trifluoro-1-methoxy-1-phenylethyl)-1,3,4-oxadiazole] | 12.8 nM |
| CC(=O)OCC(C)(C)c1nnc(-c2nn(-c3ccc(Cl)cc3Cl)c(-c3ccc(Cl)cc3)c2C)o1 [Example 252, 2-(5-(5-(4-chlorophenyl)-1-(2,4-dichlorophenyl)-4-methyl-1H-pyrazol-3-yl)-1,3,4-oxadiazol-2-yl)-2-methylpropyl acetate] | 54.5 nM |
| Cc1c(-c2nnc(C(C)(C)CO)o2)nn(-c2ccc(Cl)cc2Cl)c1-c1ccc(Cl)cc1 [Example 253, 2-(5-(5-(4-chlorophenyl)-1-(2,4-dichlorophenyl)-4-methyl-1H-pyrazol-3-yl)-1,3,4-oxadiazol-2-yl)-2-methylpropan-1-ol] | 97.9 nM |
| Cc1c(-c2nnc(C(C)(C)COCc3ccccc3)o2)nn(-c2ccc(Cl)cc2Cl)c1-c1ccc(Cl)cc1 [Example 254, 2-(1-(Benzyloxy)-2-methylpropan-2-yl)-5-(5-(4-chlorophenyl)-1-(2,4-dichlorophenyl)-4-methyl-1H-pyrazol-3-yl)-1,3,4-oxadiazole] | 492 nM |
| Cc1c(-c2nnc(C3(c4cccc(Cl)c4)CC3)o2)nn(-c2ccc(Cl)cc2Cl)c1-c1ccc(Cl)cc1 [Example 257, 2-(5-(4-chlorophenyl)-1-(2,4-dichlorophenyl)-4-methyl-1H-pyrazol-3-yl)-5-(1-(3-chlorophenyl)cyclopropyl)-1,3,4-oxadiazole] | 11.3 nM |
| CCc1c(-c2nnc(C3(c4cccc(Cl)c4)CC3)o2)nn(-c2ccc(Cl)cc2Cl)c1-c1ccc(Cl)cc1 [Example 258, 2-(5-(4-chlorophenyl)-1-(2,4-dichlorophenyl)-4-ethyl-1H-pyrazol-3-yl)-5-(1-(3-chlorophenyl)cyclopropyl)-1,3,4-oxadiazole] | 8.72 nM |
